The subject of test [1] is open-chest, barbital-anesthetized dogs. Put plainly: Protocol II (preconditioning): four 5-minute occlusion/reperfusion cycles before 60-minute occlusion and 3 hours reperfusion in dogs. The test is classed as in vivo, dog. The following applies: Protocol II; 1 mg/kg i.v. bolus + 10 μg/kg/min. The procedure:
Preconditioning was elicited by four 5-minute occlusion/5-minute reperfusion cycles produced 10 minutes before the 60-minute occlusion.

The target in test [2] is T1, recombinant canine A2a adenosine receptors (Canis lupus familiaris, UniProt P11617).
T1 construct: expressed in transfected cells
T1 sequence (P11617 whole entry): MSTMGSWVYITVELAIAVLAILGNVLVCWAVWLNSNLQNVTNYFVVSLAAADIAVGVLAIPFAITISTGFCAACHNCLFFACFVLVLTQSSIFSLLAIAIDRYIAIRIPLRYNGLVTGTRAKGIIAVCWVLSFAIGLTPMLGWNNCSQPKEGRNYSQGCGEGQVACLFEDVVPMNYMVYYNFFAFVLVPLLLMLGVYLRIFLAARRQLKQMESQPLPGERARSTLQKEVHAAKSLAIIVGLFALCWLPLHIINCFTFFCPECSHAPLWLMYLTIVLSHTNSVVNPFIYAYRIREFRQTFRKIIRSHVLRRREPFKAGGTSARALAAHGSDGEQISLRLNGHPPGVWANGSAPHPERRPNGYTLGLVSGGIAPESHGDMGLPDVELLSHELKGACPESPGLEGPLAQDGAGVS
In words: Radioligand competition binding, canine A2a receptor (3H-ZM 241385), transfected HEK 293 membranes. The following applies: canine; mean ± SEM, n = 3; 3H-ZM 241385; read-out: Ki, A2a. On the procedure: Membranes (40-70 μg membrane protein), radioligands, and varying concentrations of competing ligands were incubated in triplicate in 0.1 ml buffer HE plus 2 units/mL adenosine deaminase for 2.5 hours at 21° C. […] Nonspecific binding was measured in the presence of 10 μM 5′N ethylcarboxamidoadenosine (NECA, from RBI-Sigma, Natick, Mass.) for A1 and A2b receptors, or 10 μM xanthine amino congener (XAC, from RBI-Sigma, Natick, Mass.) for A2a receptors. Binding assays were terminated by filtration over Whatman GF/C glass fiber filters using a BRANDEL cell harvester (Gaithersburg, Md.).

Test [3] addresses T2, recombinant human A3 adenosine receptors (Homo sapiens, UniProt P0DMS8).
T2 construct: expressed in transfected cells; host or cells: HEK 293
T2 sequence (P0DMS8 1-318): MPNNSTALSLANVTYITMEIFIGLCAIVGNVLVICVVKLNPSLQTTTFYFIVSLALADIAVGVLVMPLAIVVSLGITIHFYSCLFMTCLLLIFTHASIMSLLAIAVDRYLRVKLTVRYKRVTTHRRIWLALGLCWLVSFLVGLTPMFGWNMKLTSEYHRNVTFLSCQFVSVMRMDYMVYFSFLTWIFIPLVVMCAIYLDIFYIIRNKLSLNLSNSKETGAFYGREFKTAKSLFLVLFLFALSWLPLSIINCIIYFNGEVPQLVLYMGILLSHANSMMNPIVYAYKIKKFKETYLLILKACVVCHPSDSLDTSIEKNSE
In words: Radioligand binding, human A3 receptor ([125I]-AB-MECA), incl. one-point binding at 10 μM. As to conditions: read-out: Percent (%) Inhibition at 10 μM Antagonist, A3.

Test [4] concerns the target T3, recombinant canine A1 adenosine receptors (Canis lupus familiaris, UniProt P11616).
T3 construct: expressed in transfected cells
T3 sequence (P11616 1-326): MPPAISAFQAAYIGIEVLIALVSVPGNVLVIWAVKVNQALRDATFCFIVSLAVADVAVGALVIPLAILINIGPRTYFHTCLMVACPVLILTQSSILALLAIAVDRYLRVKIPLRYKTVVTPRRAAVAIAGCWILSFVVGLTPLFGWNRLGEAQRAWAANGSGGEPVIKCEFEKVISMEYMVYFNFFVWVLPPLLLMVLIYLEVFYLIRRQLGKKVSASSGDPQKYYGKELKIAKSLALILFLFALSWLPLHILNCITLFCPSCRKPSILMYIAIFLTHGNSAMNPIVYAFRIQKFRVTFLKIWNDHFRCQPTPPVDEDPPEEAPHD
Put plainly: Radioligand competition binding, canine A1 receptor (3H-CPX), transfected HEK 293 membranes. As to conditions: canine; mean ± SEM, n = 3; 3H-CPX; read-out: Ki, A1. The procedure:
(§1) Membranes (40-70 μg membrane protein), radioligands, and varying concentrations of competing ligands were incubated in triplicate in 0.1 ml buffer HE plus 2 units/mL adenosine deaminase for 2.5 hours at 21° C. The radioligands used for competitive binding assays were: [^3H]-8-cyclopentyl-1,3-dipropyxanthine ([^3H]-DPCPX) (NEN, Boston, Mass.) for A1 and A2b adenosine receptors, [^3H]-4-(2-[7-amino-2-(furyl)(1,2,4)triazole(2,3-a)(1,3,5)triazin-5-ylaminoethyly)phenol ([^3H] ZM241385) for A2a adenosine receptors (Tocris, Bristol, UK), and [^125Iodine]-labeled N6-(4-aminobenzyl)-9-(5-(methylcarbonyl)-β-D-ribofuranosyl) adenine ([^125I]-AB-MECA) or [^3H]-R-N^6-phenylisopropyladenosine (H^3R]-R-PIA) for A3 adenosine receptors (both from NEN, Boston, Mass.). Nonspecific binding was measured in the presence of 10 μM 5′N ethylcarboxamidoadenosine (NECA, from RBI-Sigma, Natick, Mass.) for A1 and A2b receptors, or 10 μM xanthine amino congener (XAC, from RBI-Sigma, Natick, Mass.) for A2a receptors. Binding assays were terminated by filtration over Whatman GF/C glass fiber filters using a BRANDEL cell harvester (Gaithersburg, Md.).

The target in test [5] is T4, recombinant canine A3 adenosine receptors (Canis lupus familiaris, UniProt Q28309).
T4 construct: expressed in transfected cells
T4 sequence (Q28309 1-314): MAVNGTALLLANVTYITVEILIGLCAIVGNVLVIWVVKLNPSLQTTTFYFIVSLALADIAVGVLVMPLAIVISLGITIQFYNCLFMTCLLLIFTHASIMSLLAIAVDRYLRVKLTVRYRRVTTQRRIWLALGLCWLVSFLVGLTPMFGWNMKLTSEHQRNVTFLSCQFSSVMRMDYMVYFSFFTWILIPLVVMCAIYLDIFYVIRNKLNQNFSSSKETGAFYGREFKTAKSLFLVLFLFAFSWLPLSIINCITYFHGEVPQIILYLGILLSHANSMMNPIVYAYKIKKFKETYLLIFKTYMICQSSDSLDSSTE
In words: Radioligand competition binding, canine A3 receptor (R-PIA), transfected HEK 293 membranes. The following applies: mean ± SEM, n = 3. The procedure: as §1, with “Md.). The-filters were rinsed three times with 3-4 mL ice-cold 10 mM Tris-HCl, pH 7.4 and 5 mM magnesium chloride (MgCl2) at 4° C., and were counted in a Wallac β-counter (Perkin Elmer, Boston, Mass.).” for “Md.).”

Test [6] has as its system open-chest, barbital-anesthetized dogs. In words: Protocol III (reperfusion): 60 minutes occlusion and 3 hours reperfusion, drug from 10 minutes before release of occlusion, dogs. As to conditions: administration during the early phase of reperfusion. The class given is in vivo, dog.
Method: (§2) The studies were performed in open-chest, barbital-anesthetized dogs instrumented to measure heart rate, blood pressure, left ventricular pressure, and regional myocardial blood flow (radioactive microspheres). A mechanical occluder was placed around a proximal portion of the left anterior descending coronary artery to produce ischemia and reperfusion. At the end of the experiments, infarct size was determined-by histochemical staining (patent blue dye and triphenyltetrazolium) and expressed as a percentage of the region at risk or as a percentage of the entire left ventricle.
In the reperfusion protocol (see FIG. 3, protocol III), the dogs were subjected to 60 minutes of coronary artery occlusion followed by three hours of reperfusion. […] The antagonists were administered at a dose of 1 mg/kg i.v. bolus followed by an infusion of 10 μg/kg/min for one hour.
Test [7] shares this test system. In words: Protocol I (pretreatment): 60 minutes of coronary artery occlusion and 3 hours of reperfusion in dogs.
Method: as §2
In the pretreatment protocol (see FIG. 1, protocol I), the dogs were subjected to 60 minutes of coronary artery occlusion and 3 hours or reperfusion after which the hearts were removed and infarct size was assessed. […] All of the antagonists were administered at a dose of 1 mg/kg as an i.v. bolus followed by and infusion of 10 μg/kg/min continued until immediately before reperfusion (70 minutes total).

Structures are written as SMILES.

Take `CCCn1c(=O)c2[nH]c([C@H]3C[C@@H]4C[C@H]3[C@H]3O[C@@H]43)nc2n(CCC)c1=O` [BG 9719, 8-(2S-5,6-exo-epoxy-endo-norborn-2-yl)-1,3-dipropyl-3,7-dihydro-purine-2,6-dione]: the “Effect on the protective effects of ischemic preconditioning” value in test [1] is reported as “did not block”. Moreover, the Ki in test [2] was determined as 2820 nM; in test [4] it was 35.8 ± 4 nM; in test [5], 19100 nM. Moreover, in test [3], the inhibition at 10 µM stood at 40.6%. Also, in test [6], the “Infarct size expressed as a percentage of the risk region, in words” value is given as “no protective effect”. Moreover, in test [7], the “Relationship between infarct size and transmural collateral blood flow compared to control group” value is “similar”.

Source of the values: patent US20050203065A1, “Method of treating ischemia reperfusion injury using adenosine receptor antagonists” (priority 2002, published 2005).
